Experimental findings from PubChem BioAssay (NCI) are described below.

Assay in all cases: inhibition of tumour cell growth, NCI panel, 48 h
Experiment [1] has as its system CCRF-CEM leukemia.
Experiment [2] deals with COLO 205 colon.
Experiment [3] has as its system DU-145 prostate.
The subject of experiment [4] is MOLT-4 leukemia.
The test system of experiment [5] is NCI-H23 lung.
Experiment [6] has as its system NCI-H460 lung.
Experiment [7] relates to NCI/ADR-RES ovarian.
Experiment [8] relates to SF-268 CNS.
Experiment [9] deals with SNB-19 CNS.
Experiment [10] concerns SW-620 colon.

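Each compound was tested at five concentrations against cells in 96-well plates for 48 hours. The concentration for 50% growth inhibition is given as GI50. The concentration for full growth arrest is given as TGI.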

Take `O=C(NNS(=O)(=O)c1ccc(F)cc1)c1cccnc1Nc1ccc(Cl)cc1Cl`: the GI50 in experiment [1] is 21.1 µM; in [2], 16.4 µM; in [3], 22.9 µM; in experiment [4] it was 22.9 µM; in [5], 36.5 µM; in experiment [6], 31.4 µM. Further, the GI50 was 39.8 µM in [7], 45.2 µM in experiment [8], 29.2 µM in experiment [9] and 29.1 µM in experiment [10]. The TGI in [1] was over 100 µM; in experiment [2] it was 50.8 µM; in experiment [3], 55.4 µM; in experiment [4], over 100 µM; in experiment [5], over 100 µM; in experiment [6], over 100 µM. Besides, the TGI in [7], in experiment [8], in experiment [9] and in [10] was over 100 µM in each case.
On to `COc1ccc(C(=O)COc2cccc(/C=C3\CSc4ccc(Cl)cc4C3=O)c2)cc1`, for which the GI50 in [1] is 1.82 µM; in experiment [2] it was 14.1 µM; in experiment [3] it was 12.7 µM; in experiment [4] it was 2.25 µM; in [5], 14.2 µM; in experiment [6], 16.2 µM. The GI50 in experiment [7] is 11.4 µM; in experiment [8], 14.9 µM; in [9] it was 6.99 µM; in [10], 1.82 µM. Also, the TGI in experiment [1] stood at 5.41 µM; in experiment [2], 29 µM; in [3] it was 25.3 µM; in [4], 5.53 µM; in [5], 35 µM; in experiment [6], 34.9 µM. Moreover, the TGI in experiment [7] was 29.9 µM; in [8], 30.3 µM; in experiment [9], 20.1 µM; in experiment [10] it was 4.1 µM.
In the case of `CC(C)(C)[Si](C)(C)OCC1C=CC(n2cnc3c(N)ncnc32)O1` (stereo not given), the TGI was 39.8 µM in [1]; over 100 µM in experiment [2]; over 100 µM in [3]; 44.4 µM in experiment [4]; over 100 µM in [5]; over 100 µM in experiment [6]. For the same molecule, the TGI in experiment [7] was over 100 µM; in [8], over 100 µM; in [9], over 100 µM; in experiment [10], over 95.8 µM.
Turning to `C#Cc1cccc(Oc2ccc(NC(=O)CCl)cc2)c1`, the GI50 in [1] is 5.82 µM; in [2], 21.2 µM; in experiment [3], over 82.5 µM; in experiment [4], 10.8 µM; in experiment [5], 48.1 µM; in experiment [6], 25.3 µM. Moreover, the GI50 is over 82.5 µM in [7], over 82.5 µM in experiment [8], over 82.5 µM in experiment [9] and 24.8 µM in experiment [10]. For the same molecule, the TGI in experiment [1] is over 82.5 µM; in [2] it was 73.3 µM; in [3], over 82.5 µM; in [4], 77.1 µM; in experiment [5], over 82.5 µM; in experiment [6], over 82.5 µM. The TGI in [7], in experiment [8], in experiment [9] and in experiment [10] was over 82.5 µM in each case.
Consider `O=C(O)c1cc(Cc2ccc(O)c(C(=O)O)c2)ccc1O` (tested in a mixture with another compound), for which the GI50 was 2.25 µM in experiment [1]; 1.57 µM in experiment [2]; 12 µM in experiment [3]; 2.66 µM in experiment [4]; 5.31 µM in [5]; 3.53 µM in [6]. Moreover, the GI50 is 6.48 µM in experiment [7], 7.88 µM in experiment [8], 12.8 µM in experiment [9] and 3.55 µM in [10]. Also, the TGI in [1] was over 100 µM; in experiment [2] it was 3.41 µM; in [3], 27.8 µM; in [4], over 100 µM; in experiment [5] it was 20 µM; in experiment [6], 17.4 µM. Also, the TGI in experiment [7] amounted to 21 µM; in [8] it was 26.1 µM; in [9], 28.2 µM; in experiment [10], 23.5 µM.
For `NCCP(=O)(O)O`, the TGI in [1], in experiment [2], in [3], in experiment [4], in experiment [5] and in experiment [6] was over 100 µM throughout. Also, the TGI in experiment [7], in [8], in experiment [9] and in [10] was over 100 µM in each case.
For `O=S(=O)(NCCNc1cc(-c2cn(-c3ccccc3)nc2-c2cccc(O)c2)ccn1)c1ccc(Cl)cc1`, the GI50 in experiment [1] is 3.4 µM; in [2] it was 1.87 µM; in experiment [3], 3.6 µM; in experiment [4] it was 2.51 µM; in experiment [5], 3.07 µM; in experiment [6], 3.34 µM. Further, the GI50 in [7] was 2.84 µM; in experiment [8], 2.51 µM; in [9], 4.26 µM; in [10], 3.69 µM. Moreover, the TGI in experiment [1] was 28.6 µM; in experiment [2] it was 4 µM; in experiment [3], 21.3 µM; in [4], 7.37 µM; in [5] it was 13.4 µM; in experiment [6], 11.9 µM. In addition, the TGI in experiment [7] is 13.4 µM; in experiment [8] it was 8.94 µM; in experiment [9] it was 63.7 µM; in experiment [10], 18.9 µM.
